# In the kinase profiling compilation of Christmann-Franck et al. (2016):
# How the values were obtained:
# Assay in all cases: KINOMEscan competition binding
# Details in all cases: compound 10.0 µM
# HUNK (human) = HUNK (human) (UniProt P57058)
# MARK4 (human) = MARK4 (human) (UniProt Q96L34)
# CAMK1G (human) = CAMK1G (human) (UniProt Q96NX5)
# EPHA4 (human) = EPHA4 (human) (UniProt P54764)
# [1] = test system: FLT3 (human), P36888 [K663Q]
# HCK (human) = HCK (human) (UniProt P08631)
# PIK3CG (human) = PIK3CG (human) (UniProt P48736)
# ULK1 (human) = ULK1 (human) (UniProt O75385)
# BRAF (human) = BRAF (human) (UniProt P15056)
# CaMK1 (human) = CaMK1 (human) (UniProt Q14012)
# TLK1 (human) = TLK1 (human) (UniProt Q9UKI8)
# RPS6KA6 KD1 (human) = RPS6KA6 KD1 (human) (UniProt Q9UK32)
# PRKACA (human) = PRKACA (human) (UniProt P17612)
# [2] = test system: KIT (human), P10721 [L576P]
# STK4 (human) = STK4 (human) (UniProt Q13043)
# MYLK4 (human) = MYLK4 (human) (UniProt Q86YV6)
# BRSK1 (human) = BRSK1 (human) (UniProt Q8TDC3)
# TNNI3K (human) = TNNI3K (human) (UniProt Q59H18)
# DCLK3 (human) = DCLK3 (human) (UniProt Q9C098)
# EPHB1 (human) = EPHB1 (human) (UniProt P54762)
# EPHB4 (human) = EPHB4 (human) (UniProt P54760)
# [3] = test system: KIT (human), P10721 [V559D]
# TIE1 (human) = TIE1 (human) (UniProt P35590)
# STK36 (human) = STK36 (human) (UniProt Q9NRP7)
# MAP2K2 (human) = MAP2K2 (human) (UniProt P36507)
# ERBB2 (human) = ERBB2 (human) (UniProt P04626)
# GRK1 (human) = GRK1 (human) (UniProt Q15835)
# RPS6KA2 KD2 (human) = RPS6KA2 KD2 (human) (UniProt Q15349)
# SBK1 (human) = SBK1 (human) (UniProt Q52WX2)
# AAK1 (human) = AAK1 (human) (UniProt Q2M2I8)
# EPHB6 (human) = EPHB6 (human) (UniProt O15197)
# TNK2 (human) = TNK2 (human) (UniProt Q07912)
# [4] = test system: ABL1 (human), P00519 [F317I]
# MAPK3 (human) = MAPK3 (human) (UniProt P27361)
# STK38 (human) = STK38 (human) (UniProt Q15208)
# CAMK2G (human) = CAMK2G (human) (UniProt Q13555)
# ACVR1B (human) = ACVR1B (human) (UniProt P36896)
# EPHB3 (human) = EPHB3 (human) (UniProt P54753)
# STK35 (human) = STK35 (human) (UniProt Q8TDR2)
# [5] = test system: ABL1 (human), P00519 [M351T]
# SYK (human) = SYK (human) (UniProt P43405)
# BTK (human) = BTK (human) (UniProt Q06187)
# Chain of SBK1 (human) (Q52WX2 whole entry, looked up): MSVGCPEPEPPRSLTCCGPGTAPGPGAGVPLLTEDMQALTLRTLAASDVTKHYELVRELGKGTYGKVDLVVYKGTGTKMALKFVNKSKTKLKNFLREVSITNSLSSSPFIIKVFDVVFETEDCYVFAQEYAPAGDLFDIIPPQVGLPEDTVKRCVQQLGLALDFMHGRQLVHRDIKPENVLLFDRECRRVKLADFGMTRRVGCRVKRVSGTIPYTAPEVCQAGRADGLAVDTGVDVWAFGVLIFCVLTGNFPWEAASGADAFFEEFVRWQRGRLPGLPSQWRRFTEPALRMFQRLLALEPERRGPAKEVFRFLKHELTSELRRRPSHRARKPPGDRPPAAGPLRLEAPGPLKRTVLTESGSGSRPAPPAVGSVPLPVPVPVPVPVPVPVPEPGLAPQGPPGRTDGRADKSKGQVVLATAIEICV
# Chain of RPS6KA6 KD1 (human) (Q9UK32 whole entry, looked up): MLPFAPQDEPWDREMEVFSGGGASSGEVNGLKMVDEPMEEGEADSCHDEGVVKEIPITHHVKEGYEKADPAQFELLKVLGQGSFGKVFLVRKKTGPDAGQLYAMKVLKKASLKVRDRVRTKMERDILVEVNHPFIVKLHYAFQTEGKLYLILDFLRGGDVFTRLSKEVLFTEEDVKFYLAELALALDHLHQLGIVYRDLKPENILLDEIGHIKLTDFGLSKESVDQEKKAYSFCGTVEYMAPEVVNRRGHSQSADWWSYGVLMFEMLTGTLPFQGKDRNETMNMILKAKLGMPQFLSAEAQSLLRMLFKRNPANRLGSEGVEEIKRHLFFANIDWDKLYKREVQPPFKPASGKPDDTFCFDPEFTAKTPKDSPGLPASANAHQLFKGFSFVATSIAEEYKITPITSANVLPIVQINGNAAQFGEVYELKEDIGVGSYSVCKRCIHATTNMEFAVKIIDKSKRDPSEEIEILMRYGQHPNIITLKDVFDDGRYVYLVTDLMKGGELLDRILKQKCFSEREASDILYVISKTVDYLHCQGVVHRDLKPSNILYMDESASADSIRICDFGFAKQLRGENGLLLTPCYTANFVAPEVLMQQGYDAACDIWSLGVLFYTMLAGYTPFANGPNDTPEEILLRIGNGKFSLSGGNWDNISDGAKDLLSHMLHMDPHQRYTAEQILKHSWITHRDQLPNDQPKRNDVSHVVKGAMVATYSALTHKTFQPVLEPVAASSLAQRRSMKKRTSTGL
# Chain of DCLK3 (human) (Q9C098 whole entry, looked up): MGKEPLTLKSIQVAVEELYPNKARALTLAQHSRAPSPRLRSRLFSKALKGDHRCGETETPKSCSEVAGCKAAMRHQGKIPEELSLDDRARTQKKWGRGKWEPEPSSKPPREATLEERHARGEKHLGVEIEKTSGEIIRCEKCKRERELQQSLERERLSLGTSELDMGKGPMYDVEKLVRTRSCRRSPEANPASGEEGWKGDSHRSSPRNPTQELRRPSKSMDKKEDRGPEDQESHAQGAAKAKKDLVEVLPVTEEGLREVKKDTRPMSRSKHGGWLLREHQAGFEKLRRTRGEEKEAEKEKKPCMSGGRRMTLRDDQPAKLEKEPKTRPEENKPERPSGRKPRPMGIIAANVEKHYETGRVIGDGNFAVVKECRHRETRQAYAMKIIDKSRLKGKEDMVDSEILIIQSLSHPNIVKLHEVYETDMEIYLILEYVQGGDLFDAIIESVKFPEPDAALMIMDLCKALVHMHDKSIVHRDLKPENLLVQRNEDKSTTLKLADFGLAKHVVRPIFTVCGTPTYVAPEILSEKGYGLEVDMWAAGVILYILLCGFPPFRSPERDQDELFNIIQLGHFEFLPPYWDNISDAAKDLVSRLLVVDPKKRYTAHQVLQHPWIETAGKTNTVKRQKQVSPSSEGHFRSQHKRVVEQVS
# Chain of BRAF (human) (P15056 whole entry, looked up): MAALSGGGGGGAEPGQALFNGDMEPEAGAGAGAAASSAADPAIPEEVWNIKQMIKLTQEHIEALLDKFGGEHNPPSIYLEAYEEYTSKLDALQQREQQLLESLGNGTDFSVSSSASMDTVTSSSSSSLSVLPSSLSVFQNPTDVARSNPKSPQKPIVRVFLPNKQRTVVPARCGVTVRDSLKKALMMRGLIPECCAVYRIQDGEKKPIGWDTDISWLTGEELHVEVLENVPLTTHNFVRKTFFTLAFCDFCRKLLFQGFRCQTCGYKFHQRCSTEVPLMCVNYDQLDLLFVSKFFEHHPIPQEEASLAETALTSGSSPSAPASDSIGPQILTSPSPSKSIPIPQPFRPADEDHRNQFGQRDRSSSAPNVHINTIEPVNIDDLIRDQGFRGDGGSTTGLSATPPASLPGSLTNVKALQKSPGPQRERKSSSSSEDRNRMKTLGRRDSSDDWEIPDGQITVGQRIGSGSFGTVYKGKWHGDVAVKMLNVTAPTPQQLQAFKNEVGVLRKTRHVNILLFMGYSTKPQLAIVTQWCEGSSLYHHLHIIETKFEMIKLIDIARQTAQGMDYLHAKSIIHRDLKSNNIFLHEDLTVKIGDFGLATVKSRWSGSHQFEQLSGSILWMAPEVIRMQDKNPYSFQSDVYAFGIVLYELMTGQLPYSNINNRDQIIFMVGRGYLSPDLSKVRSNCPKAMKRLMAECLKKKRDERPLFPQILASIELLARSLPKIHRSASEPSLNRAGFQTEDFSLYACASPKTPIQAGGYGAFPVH
# Chain of PIK3CG (human) (P48736 whole entry, looked up): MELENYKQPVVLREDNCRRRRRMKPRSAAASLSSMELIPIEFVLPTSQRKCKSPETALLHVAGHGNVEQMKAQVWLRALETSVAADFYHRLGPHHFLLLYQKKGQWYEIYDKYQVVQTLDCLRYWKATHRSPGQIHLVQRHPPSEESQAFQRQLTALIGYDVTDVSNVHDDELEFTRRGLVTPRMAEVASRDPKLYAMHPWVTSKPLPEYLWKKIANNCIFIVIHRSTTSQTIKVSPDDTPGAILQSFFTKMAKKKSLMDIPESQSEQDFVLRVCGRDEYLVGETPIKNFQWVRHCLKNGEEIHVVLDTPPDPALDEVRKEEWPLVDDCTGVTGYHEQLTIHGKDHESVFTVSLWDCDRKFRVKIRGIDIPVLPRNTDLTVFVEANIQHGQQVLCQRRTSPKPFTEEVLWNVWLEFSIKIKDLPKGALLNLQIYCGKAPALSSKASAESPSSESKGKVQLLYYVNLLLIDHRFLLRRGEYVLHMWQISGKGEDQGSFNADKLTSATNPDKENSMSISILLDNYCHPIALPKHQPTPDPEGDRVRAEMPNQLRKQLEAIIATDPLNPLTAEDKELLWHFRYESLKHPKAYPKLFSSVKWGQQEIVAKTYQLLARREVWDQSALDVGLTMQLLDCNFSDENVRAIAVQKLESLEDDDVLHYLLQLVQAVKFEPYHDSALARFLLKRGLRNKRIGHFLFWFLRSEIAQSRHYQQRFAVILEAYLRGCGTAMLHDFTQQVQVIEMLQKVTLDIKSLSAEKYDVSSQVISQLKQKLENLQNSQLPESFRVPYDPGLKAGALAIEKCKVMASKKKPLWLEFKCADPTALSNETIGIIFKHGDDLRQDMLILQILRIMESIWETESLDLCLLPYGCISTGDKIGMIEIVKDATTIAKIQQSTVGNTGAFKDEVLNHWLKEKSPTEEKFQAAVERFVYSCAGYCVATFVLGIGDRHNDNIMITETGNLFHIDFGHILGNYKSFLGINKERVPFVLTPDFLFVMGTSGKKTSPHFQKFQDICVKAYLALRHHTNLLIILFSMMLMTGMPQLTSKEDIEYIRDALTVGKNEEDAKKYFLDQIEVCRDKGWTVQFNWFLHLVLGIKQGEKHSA
# Chain of CAMK1G (human) (Q96NX5 whole entry, looked up): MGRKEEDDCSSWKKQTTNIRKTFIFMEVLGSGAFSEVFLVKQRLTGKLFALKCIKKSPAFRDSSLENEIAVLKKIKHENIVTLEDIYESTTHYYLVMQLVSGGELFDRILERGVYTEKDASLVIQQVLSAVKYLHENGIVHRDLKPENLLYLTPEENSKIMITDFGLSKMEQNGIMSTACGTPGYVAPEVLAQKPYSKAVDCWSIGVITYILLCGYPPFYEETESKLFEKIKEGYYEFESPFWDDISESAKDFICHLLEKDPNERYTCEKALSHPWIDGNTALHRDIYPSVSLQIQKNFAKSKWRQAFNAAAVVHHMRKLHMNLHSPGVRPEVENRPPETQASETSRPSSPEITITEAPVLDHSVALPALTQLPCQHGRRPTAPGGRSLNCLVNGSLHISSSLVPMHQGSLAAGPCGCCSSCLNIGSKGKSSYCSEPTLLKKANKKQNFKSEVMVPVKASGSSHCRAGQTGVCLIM
# Chain of MAPK3 (human) (P27361 whole entry, looked up): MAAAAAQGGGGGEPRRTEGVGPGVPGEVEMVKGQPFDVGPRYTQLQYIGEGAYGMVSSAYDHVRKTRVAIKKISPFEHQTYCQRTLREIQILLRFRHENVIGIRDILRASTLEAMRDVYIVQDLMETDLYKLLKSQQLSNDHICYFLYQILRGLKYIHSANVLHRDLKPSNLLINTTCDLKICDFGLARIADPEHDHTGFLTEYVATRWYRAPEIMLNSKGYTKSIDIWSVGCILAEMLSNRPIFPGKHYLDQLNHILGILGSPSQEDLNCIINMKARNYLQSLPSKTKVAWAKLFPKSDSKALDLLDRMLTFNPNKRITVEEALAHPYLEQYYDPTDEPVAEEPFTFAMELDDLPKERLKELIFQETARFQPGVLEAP
# Chain of STK38 (human) (Q15208 whole entry, looked up): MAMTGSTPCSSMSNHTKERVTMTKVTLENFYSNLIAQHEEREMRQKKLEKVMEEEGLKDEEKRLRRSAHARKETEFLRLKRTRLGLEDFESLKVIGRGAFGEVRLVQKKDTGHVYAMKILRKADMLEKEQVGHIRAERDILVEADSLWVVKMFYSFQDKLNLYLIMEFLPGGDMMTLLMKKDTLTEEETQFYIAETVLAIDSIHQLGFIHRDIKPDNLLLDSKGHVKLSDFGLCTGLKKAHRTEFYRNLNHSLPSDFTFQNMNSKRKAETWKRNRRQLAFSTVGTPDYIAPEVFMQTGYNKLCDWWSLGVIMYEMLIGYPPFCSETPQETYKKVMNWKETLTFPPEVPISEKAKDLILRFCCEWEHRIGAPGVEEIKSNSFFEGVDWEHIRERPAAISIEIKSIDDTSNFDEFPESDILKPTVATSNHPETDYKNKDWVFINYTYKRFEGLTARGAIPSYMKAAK
smiles,measurement,setting,value
O=C1Nc2cc(Br)ccc2/C1=C1/Nc2ccccc2/C1=N\O,"kinase still bound, per cent of control",HUNK (human),79%
same,"kinase still bound, per cent of control",MARK4 (human),35%
same,"kinase still bound, per cent of control",CAMK1G (human),42%
same,"kinase still bound, per cent of control",EPHA4 (human),55%
same,"kinase still bound, per cent of control",[1],0%
same,"kinase still bound, per cent of control",HCK (human),1.2%
same,"kinase still bound, per cent of control",PIK3CG (human),82%
same,"kinase still bound, per cent of control",ULK1 (human),7.3%
same,"kinase still bound, per cent of control",BRAF (human),89%
same,"kinase still bound, per cent of control",CaMK1 (human),28%
same,"kinase still bound, per cent of control",TLK1 (human),47%
same,"kinase still bound, per cent of control",RPS6KA6 KD1 (human),51%
same,"kinase still bound, per cent of control",PRKACA (human),100%
same,"kinase still bound, per cent of control",[2],0%
same,"kinase still bound, per cent of control",STK4 (human),6.5%
same,"kinase still bound, per cent of control",MYLK4 (human),7.3%
same,"kinase still bound, per cent of control",BRSK1 (human),1.8%
same,"kinase still bound, per cent of control",TNNI3K (human),68%
same,"kinase still bound, per cent of control",DCLK3 (human),8%
same,"kinase still bound, per cent of control",EPHB1 (human),43%
same,"kinase still bound, per cent of control",EPHB4 (human),48%
same,"kinase still bound, per cent of control",[3],0%
same,"kinase still bound, per cent of control",TIE1 (human),55%
same,"kinase still bound, per cent of control",STK36 (human),53%
same,"kinase still bound, per cent of control",MAP2K2 (human),26%
same,"kinase still bound, per cent of control",ERBB2 (human),87%
same,"kinase still bound, per cent of control",GRK1 (human),60%
same,"kinase still bound, per cent of control",RPS6KA2 KD2 (human),79%
same,"kinase still bound, per cent of control",SBK1 (human),61%
same,"kinase still bound, per cent of control",AAK1 (human),0.75%
same,"kinase still bound, per cent of control",EPHB6 (human),0.3%
same,"kinase still bound, per cent of control",TNK2 (human),28%
same,"kinase still bound, per cent of control",[4],4.2%
same,"kinase still bound, per cent of control",MAPK3 (human),100%
same,"kinase still bound, per cent of control",STK38 (human),86%
same,"kinase still bound, per cent of control",CAMK2G (human),8.8%
same,"kinase still bound, per cent of control",ACVR1B (human),77%
same,"kinase still bound, per cent of control",EPHB3 (human),100%
same,"kinase still bound, per cent of control",STK35 (human),60%
same,"kinase still bound, per cent of control",[5],2.2%
same,"kinase still bound, per cent of control",SYK (human),4.6%
same,"kinase still bound, per cent of control",BTK (human),38%
Cn1cc(C2=C(c3ccc(Cl)cc3Cl)C(=O)NC2=O)c2ccccc21,"kinase still bound, per cent of control",HUNK (human),100%
same,"kinase still bound, per cent of control",MARK4 (human),100%
same,"kinase still bound, per cent of control",CAMK1G (human),70%
same,"kinase still bound, per cent of control",EPHA4 (human),100%
same,"kinase still bound, per cent of control",[1],62%
same,"kinase still bound, per cent of control",HCK (human),100%
same,"kinase still bound, per cent of control",PIK3CG (human),93%
same,"kinase still bound, per cent of control",ULK1 (human),96%
same,"kinase still bound, per cent of control",BRAF (human),80%
same,"kinase still bound, per cent of control",CaMK1 (human),98%
same,"kinase still bound, per cent of control",TLK1 (human),36%
same,"kinase still bound, per cent of control",RPS6KA6 KD1 (human),75%
same,"kinase still bound, per cent of control",PRKACA (human),100%
same,"kinase still bound, per cent of control",[2],72%
same,"kinase still bound, per cent of control",STK4 (human),62%
same,"kinase still bound, per cent of control",MYLK4 (human),38%
same,"kinase still bound, per cent of control",BRSK1 (human),90%
same,"kinase still bound, per cent of control",TNNI3K (human),80%
same,"kinase still bound, per cent of control",DCLK3 (human),66%
same,"kinase still bound, per cent of control",EPHB1 (human),91%
same,"kinase still bound, per cent of control",EPHB4 (human),100%
same,"kinase still bound, per cent of control",[3],87%
same,"kinase still bound, per cent of control",TIE1 (human),99%
same,"kinase still bound, per cent of control",STK36 (human),100%
same,"kinase still bound, per cent of control",MAP2K2 (human),100%
same,"kinase still bound, per cent of control",ERBB2 (human),100%
same,"kinase still bound, per cent of control",GRK1 (human),83%
same,"kinase still bound, per cent of control",RPS6KA2 KD2 (human),78%
same,"kinase still bound, per cent of control",SBK1 (human),97%
same,"kinase still bound, per cent of control",AAK1 (human),26%
same,"kinase still bound, per cent of control",EPHB6 (human),100%
same,"kinase still bound, per cent of control",TNK2 (human),100%
same,"kinase still bound, per cent of control",[4],100%
same,"kinase still bound, per cent of control",MAPK3 (human),99%
same,"kinase still bound, per cent of control",STK38 (human),100%
same,"kinase still bound, per cent of control",CAMK2G (human),58%
same,"kinase still bound, per cent of control",ACVR1B (human),89%
same,"kinase still bound, per cent of control",EPHB3 (human),100%
same,"kinase still bound, per cent of control",STK35 (human),94%
same,"kinase still bound, per cent of control",[5],82%
same,"kinase still bound, per cent of control",SYK (human),92%
same,"kinase still bound, per cent of control",BTK (human),100%
